According to patent US20250101052A1, “COMPOUND FOR EGFR KINASE INHIBITOR, COMPOSITION, AND USE THEREOF” (INNOVATION INSTITUTE FOR ARTIFICIAL INTELLIGENCE IN …, priority 2021, published 2025):

Columns and labels:
[1] = test system: BaF3-EGFR^L858R/T790M/C797S cells; assay: BaF3 cell proliferation inhibition experiment (CCK-8); assay type: cell-based; settings: Ba/F3 EGFR-L858R, 72 hours
Text: BaF3 cell proliferation inhibition experiment: The compounds of the present invention have excellent inhibitory activity against the proliferation of BaF3-EGFR^L858R/T790M/C797S cells
A. Cell line: BaF3 cells with stable overexpression of wild-type genes are named BaF3-EGFR^WT, and BaF3 cells with stable overexpression of EGFR^L858R/T790M/C797S EGFR^del19/T790M/C797S EGFR^L858R/C797S and EGFR^del19/C797S mutant genes are named BaF3-EGFR^L858R/T790M/C797S BaF3-EGFR^del19/T790M/C797S BaF3-EGFR^L858R/C797S and BaF3-EGFR^del19/C797S cells, respectively. Mediums:
(§1) a) The medium was preheated in a 37° C. water bath.
(§2) b) The cryopreservation tube was taken from the liquid nitrogen tank, quickly placed in a 37° C. water bath, and melted completely within 1 minute.
(§3) c) The cell suspension was transferred to a 15 mL centrifuge tube containing a 10 mL medium and centrifuged at 1000 rpm for 4 minutes.
(§4) d) The supernatant was discarded, the cells were resuspended in a 1 mL medium and transferred to a […] culture dish containing a 10 mL medium, 20% serum and 50 ng/mL EGF were administered to the first-generation medium, and culture was conducted in a 37° C. and 5% CO2 incubator.
(§5) b) The cells in the culture dish were blown evenly with a 5 mL pipette, and 500 μL of the cells were pipetted out to be inoculated into a new […] culture dish and cultured in a 37° C. and 5% CO2 incubator.
(§6) a) The compound to be tested (10 mM stock solution) was diluted with 100% DMSO to 1 mM, and diluted with a culture solution in a 24-well plate to prepare of a working solution of 2 μM concentration.
(§7) b) The 2 μM working solution was diluted with a triple dilution method to obtain working solutions with approximate concentrations of 2 μM, 600 nM, 200 nM, 60 nM, and 20 nM.
(§8) a) The cells at the logarithmic growth phase were centrifuged at 1000 rpm for 4 minutes, resuspended with a medium (containing 10% serum and 50 ng/mL EGF), and counted.
(§9) b) The cells were inoculated into a 96-well plate with a cell density of 4000 cells/well, and placed in a 37° C. and 5% CO2 incubator for culture for 12 hours.
(§10) a) The prepared compound was added to a 96-well plate, with 100 μL per well. The final concentrations were 1 μM, 300 nM, 100 nM, 30 nM, 10 nM, and 0 nM, and the final concentration of DMSO was 0.2%. A medium served as a blank control.
(§11) b) The cells were placed in 37° C. and 5% CO2 incubator for culture for 72 hours.
(§12) (5) Cell Viability Testing
a) The 96-well cell culture plate was taken out, and 20 μL of a CCK-8 reagent (Cell Counting Kit-8, Topscience, Catalog No. C0005) was added in the dark.
b) Mixing well was conducted on a horizontal shaking table at a room temperature at 100 rpm for 5 minutes.
c) The culture plate was placed in a 37° C. constant-temperature incubator for incubation.
d) Starting from the addition of the CCK-8, the absorbance at 450 nm was read using the TECAN microplate reader at 1 hour, 2 hours, and 3 hours, respectively.
(§13) The data was analyzed using GraphPad Prism 8.0 software to obtain a fitted curve of activity of the compounds. The IC50 of the compounds was fitted from nonlinear regression equation.

A431 cells = assay: A431 cell proliferation inhibition (SRB); assay type: cell-based; settings: Homo sapiens, A-431, wild-type EGFR, 72 hours
Description: A431 cell proliferation inhibition: The compounds of the present invention have good selectivity to wild-type EGFR
as §1, §2, §3, §4, §5, §6, §7, §8, §9, §10, §11, §12
a) The cell supernatant was discarded, rinsed once with 1×PBS, and fixed with 10% trichloroacetic acid for 1 hour. The trichloroacetic acid was discarded, excess trichloroacetic acid was washed off with tap water, and the 96-well plate was dried in a 60° C. oven.
b) 70 μL of an SRB stain was added to each well of the dry 96-well plate for staining at a room temperature for 30 minutes. Excess SRB stain was washed off with 1% glacial acetic acid, and the 96-well plate was dried in a 60° C. oven.
c) SRB was dissolved with 100 μL of 10 mM Tris-base solution. The absorbance was detected at 540 nm ultraviolet absorption using the microplate reader. The data was analyzed.
as §13

[2] = target: EGFR^L858R/T790M/C797S kinase (Homo sapiens (Human), UniProt P00533, C797S/L858R/T790M); assay: EGFR^L858R/T790M/C797S kinase inhibitory activity experiment; assay type: biochemical; settings: in vitro
EGFR^L858R/T790M/C797S kinase, sequence (P00533 25-1210 T790M/C797S/L858R): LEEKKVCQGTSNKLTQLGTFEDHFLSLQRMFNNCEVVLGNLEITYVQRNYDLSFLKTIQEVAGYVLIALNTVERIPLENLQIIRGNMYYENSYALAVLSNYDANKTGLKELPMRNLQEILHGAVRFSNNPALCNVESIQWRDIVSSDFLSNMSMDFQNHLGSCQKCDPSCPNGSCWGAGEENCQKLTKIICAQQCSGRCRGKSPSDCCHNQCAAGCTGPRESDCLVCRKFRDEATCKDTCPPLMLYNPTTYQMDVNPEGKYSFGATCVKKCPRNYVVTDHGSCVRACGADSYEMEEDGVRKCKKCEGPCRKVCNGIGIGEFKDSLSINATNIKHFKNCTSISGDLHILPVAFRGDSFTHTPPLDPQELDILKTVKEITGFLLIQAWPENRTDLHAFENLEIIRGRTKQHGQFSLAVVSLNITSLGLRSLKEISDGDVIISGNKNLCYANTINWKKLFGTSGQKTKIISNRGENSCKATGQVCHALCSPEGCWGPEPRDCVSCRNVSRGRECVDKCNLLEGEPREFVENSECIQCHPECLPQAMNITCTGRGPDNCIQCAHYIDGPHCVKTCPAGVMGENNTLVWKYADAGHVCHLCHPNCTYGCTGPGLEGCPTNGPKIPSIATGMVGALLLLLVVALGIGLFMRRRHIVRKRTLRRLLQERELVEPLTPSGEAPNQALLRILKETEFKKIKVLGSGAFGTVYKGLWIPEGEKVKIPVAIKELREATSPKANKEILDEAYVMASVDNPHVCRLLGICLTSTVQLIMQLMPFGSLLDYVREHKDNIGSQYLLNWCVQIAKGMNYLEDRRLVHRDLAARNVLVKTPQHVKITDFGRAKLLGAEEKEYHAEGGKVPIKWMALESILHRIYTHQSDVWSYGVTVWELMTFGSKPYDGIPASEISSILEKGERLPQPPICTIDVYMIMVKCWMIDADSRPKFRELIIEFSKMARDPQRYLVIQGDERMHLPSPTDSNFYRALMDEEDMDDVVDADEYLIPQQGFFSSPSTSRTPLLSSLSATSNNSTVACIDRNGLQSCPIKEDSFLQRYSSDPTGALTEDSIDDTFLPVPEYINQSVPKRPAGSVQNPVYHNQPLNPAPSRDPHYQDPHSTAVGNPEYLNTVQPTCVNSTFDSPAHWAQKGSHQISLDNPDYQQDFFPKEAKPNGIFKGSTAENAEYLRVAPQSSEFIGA
Description: EGFRL^858R/T790M/C797S kinase inhibitory activity experiment: The compounds of the present invention have excellent in-vitro inhibitory activity against EGFR^L858R/T790M/C797S kinase
• Centrifuge (manufacturer: Eppendorf, model: 5430) • Microplate reader (manufacturer: Perkin Elmer, model: Caliper EZ ReaderII) • Echo 550 (manufacturer: Labcyte, model: Echo 550) • Experimental Method • Compound preparation: • A 10 mM storage solution was prepared.
(1) 1×Kinase buffer was prepared.
(2) Preparation of concentration gradient of compound: The tested compound has a test concentration starting from 1 μM, diluted 10 times, with 10 concentrations, and subjected to single-well or multi-well detection. The compound was diluted to a 100% DMSO solution with a final concentration of 100 times in a 384 source plate. […] of the compound at a final concentration of 100 times was transferred to the target plate 384-well-plate using the pipette Echo 550.
(3) A kinase solution with a final concentration of 2.5 times was prepared using 1× Kinase buffer.
(4) 10 μL of the kinase solution with the final concentration of 2.5 times was added to a compound well and a positive control well, respectively; 10 μL of 1×Kinase buffer was added to a negative control well.
(5) Centrifugation was conducted at 1000 rpm for 30 seconds, and the reaction plate was shaken and mixed well, and incubated at a room temperature for 10 minutes.
(6) A mixed solution of ATP with a final concentration of 5/3 times and Kinase substrate 22 was prepared using 1×Kinase buffer.
(7) A mixed solution of 15 μL of ATP with a final concentration of 5/3 times and a substrate was added for initial reaction.
(8) The 384-well-plate was centrifuged at 1000 rpm for 30 seconds, shaken and mixed well, and incubated at a room temperature for 60 minutes.
(9) 30 μL of a termination detection solution was added to stop the kinase reaction. Centrifugation was conducted at 1000 rpm for 30 seconds. Shaking and mixing well were conducted.
(10) The conversion rate was read using Caliper EZ Reader.
where Conversion %_sample is the conversion rate reading of the sample; Conversion %_min: the average value of negative control wells, representing the conversion rate reading of wells without enzyme activity; Conversion %_max: the average value of positive control wells, representing the conversion rate reading of wells without compound inhibition; % Inhibition represents the inhibition rate.
Fitting of Dose-Response Curve
Using the log value of concentration as the X-axis and the percentage inhibition rate as the Y-axis, the dose-response curve was fitted using the log(inhibitor) vs. response —Variable slope of the analysis software GraphPad Prism 5 to obtain the IC50 value of each compound on enzyme activity.

Compound	IC50 [1] [nM]	IC50 (A431 cells) [nM]	IC50 [2] [nM]
CCc1cc(Nc2ncc(Cl)c(Nc3ccccc3P(C)(C)=O)n2)c(OC)cc1N1CC2(CCN(C)CC2)C1 [Comparative Compound B, (2-((5-Chloro-2-((5-ethyl-2-methoxy-4-(7-methyl-2,7-diazaspiro[3.5]nonan-2-yl)phenyl)amino)pyrimidin-4-yl)amino)phenyl)dimethylphosphine oxide, reference compound]	251	280	2.3
COc1cc(N2CC3(CCN(C)CC3)C2)c(C)cc1Nc1ncc(Cl)c(Nc2cc(C)c(C)cc2P(C)(C)=O)n1 [Compound 5, (2-((5-Chloro-2-((2-methoxy-5-methyl-4-(7-methyl-2,7-diazaspiro[3.5]nonan-2-yl)phenyl)amino)pyrimidin-4-yl)amino)-4,5-dimethylphenyl)dimethylphosphine oxide]	42.3	> 500	11
CCc1cc(Nc2ncc(Cl)c(Nc3cc(Cl)c(Cl)cc3P(C)(C)=O)n2)c(OC)cc1N1CCC2(CC1)CC(N(C)C)C2 [Compound 7, (4,5-Dichloro-2-((5-chloro-2-((4-(2-(dimethylamino)-7-azaspiro[3. 5]nonan-7-yl)-5-ethyl-2-methoxyphenyl)amino)pyrimidin-4-yl)amino)phenyl)dimethylphosphine oxide]	49.9	> 500	0.98
CCc1cc(Nc2ncc(Cl)c(Nc3cc(C(F)(F)F)ccc3P(C)(C)=O)n2)c(OC)cc1N1CCC2(CC1)CC(N(C)C)C2 [Compound 8, (2-((5-Chloro-2-((4-(2-(dimethylamino)-7-azaspiro[3.5]nonan-7-yl)-5-ethyl-2-methoxypheny 1)amino)pyrimidin-4-yl)amino)-4-(trifluoromethyl)phenyl)dimethylphosphine oxide]	261	> 1000	29
COc1cc(N2CCC3(CC2)CC(N(C)C)C3)c(Cl)cc1Nc1ncc(Cl)c(Nc2cc(C)c(C)cc2P(C)(C)=O)n1 [Compound 13, (2-((5-Chloro-2-((5-chloro-4-(2-(dimethylamino)-7-azaspiro[3.5]nonan-7-yl)-2-methoxyphenyl)amino)pyrimidin-4-yl)amino)-4,5-dimethylphenyl)dimethylphosphine oxide]	38.1	> 500	0.89
COc1cc(N2CCC3(CC2)CC(N(C)C)C3)c(F)cc1Nc1ncc(Cl)c(Nc2cc(C)c(C)cc2P(C)(C)=O)n1 [Compound 16, (2-((5-chloro-2-((4-(2-(dimethylamino)-7-azaspiro[3.5]nonan-7-yl)-5-fluoro-2-methoxypheny 1)amino)pyrimidin-4-yl)amino)-4,5-dimethylphenyl)dimethylphosphine oxide]	35.7	> 500	12
CCc1cc(Nc2ncc(Cl)c(Nc3cc(Cl)c(Cl)cc3P(C)(C)=O)n2)c(OC)cc1N1CC2(CCC(CC#N)CC2)C1 [Compound 39, 2-(2-(4-((5-chloro-4-((4,5-dichloro-2-(dimethylphosphoryl)phenyl)amino)pyrimidin-2-yl)amino)-2-ethyl-5-methoxyphenyl)-2-azaspiro[3.5]nonan-7-yl)acetonitrile]	–	–	12.1
COc1cc(N2CC3(CCN(C)CC3)C2)c(Cl)cc1Nc1ncc(Cl)c(Nc2cc(C)c(C)cc2P(C)(C)=O)n1 [Compound 40]	–	–	0.85
COc1cc(N2CC3(CCN(C4CC4)CC3)C2)c(Cl)cc1Nc1ncc(Cl)c(Nc2cc(C)c(C)cc2P(C)(C)=O)n1 [Compound 41]	–	–	0.89
COc1cc(N2CC3(CCN(CC(F)F)CC3)C2)c(Cl)cc1Nc1ncc(Cl)c(Nc2cc(C)c(C)cc2P(C)(C)=O)n1 [Compound 42]	–	–	0.76
COc1cc(N2CC3(CCC(CC#N)CC3)C2)c(Cl)cc1Nc1ncc(Cl)c(Nc2cc(C)c(C)cc2P(C)(C)=O)n1 [Compound 43, 2-(2-(2-chloro-4-((5-chloro-4-((2-(dimethylphosphoryl)-4,5-dimethylphenyl)amino)pyrimidin-2-yl)amino)-5-methoxyphenyl)-2-azaspiro[3.5]nonan-7-yl)acetonitrile]	–	–	25.2
CCc1cc(Nc2ncc(Cl)c(Nc3cc(C)c(C)cc3P(C)(C)=O)n2)c(OC)cc1N1CC2(CCN(C)CC2)C1 [Compound 44]	–	–	0.48
CCc1cc(Nc2ncc(Cl)c(Nc3cc(C)c(C)cc3P(C)(C)=O)n2)c(OC)cc1N1CC2(CCN(CC(F)F)CC2)C1 [Compound 45]	–	–	0.74
CCc1cc(Nc2ncc(Cl)c(Nc3cccc(Cl)c3P(C)(C)=O)n2)c(OC)cc1N1CC2(CCN(C)CC2)C1 [Compound 46]	–	–	0.63
CCc1cc(Nc2ncc(Cl)c(Nc3cccc(Cl)c3P(C)(C)=O)n2)c(OC)cc1N1CC2(CCN(CC)CC2)C1 [Compound 47]	–	–	0.78
CCc1cc(Nc2ncc(Cl)c(Nc3ccc(C)c(C)c3P(C)(C)=O)n2)c(OC)cc1N1CCC2(CC1)CC(N1CC(C#N)C1)C2 [Compound 49, 1-(7-(4-((5-chloro-4-((2-(dimethylphosphoryl)-3,4-dimethylphenyl)amino)pyrimidin-2-yl)amino)-2-ethyl-5-methoxyphenyl)-7-azaspiro[3.5]nonan-2-yl)azetidine-3-carbonitrile]	–	–	8.23
CCc1cc(Nc2ncc(Cl)c(Nc3ccc(C)c(C)c3P(C)(C)=O)n2)c(OC)cc1N1CCC(N2CC3CC(C2)N3C)CC1 [Compound 53, (6-((5-Chloro-2-((5-ethyl-2-methoxy-4-(4-(6-methyl-3,6-diazadicyclo[3.1.1]heptane-3-yl)piperidin-1-yl)phenyl)amino)pyrimidin-4-yl)amino)-2,3-dimethylphenyl)dimethylphosphine oxide]	–	–	0.269
